This series in a line: in vitro drug release (elution) in PBS at 37° C. It is filed as physicochemical. Particulars: docetaxel powder, milled vs unmilled. The method, then: Using docetaxel as the example drug, and 10:10:80 PEG10K:PLGA5050:Doce as the baseline formulation for comparison, we show below various novel formulations that can increase in vitro drug elution rates as tested in PBS at 37° C. 10:10:80 PEG10K:PLGA5050:Doce was the formulation that was evaluated in our preclinical studies. Average cumulative drug release % values with linear trend line from the first 14 days were plotted, as shown in FIG. 114. • Baseline=PEG:PLGA:Doce 10:10:80 Rod • Fast=PEG:PLGA:Doce 50:10:40 Rod • Faster=PEG:Doce 60:40 Rod • Raw docetaxel powder, milled or unmilled • Fastest=PEG:Doce 1:1 Particles
The mechanism of how each of these novel formulations can achieve increased in vitro drug release rate compared to the baseline 10:10:80 PEG10K:PLGA5050:Doce formulation is explained below. We have developed multiple formulations with tunable drug release rates that takes advantage of either decreasing hydrophobicity (by increasing PEG content) or introducing predominantly molecularly dispersed drug into the polymer matrix.

SMILES strings stand for the structures.

On to `CC(=O)O[C@@]12CO[C@@H]1C[C@H](O)[C@@]1(C)C(=O)[C@H](O)C3=C(C)[C@@H](OC(=O)[C@H](O)[C@@H](NC(=O)OC(C)(C)C)c4ccccc4)C[C@@](O)([C@@H](OC(=O)c4ccccc4)[C@H]21)C3(C)C` [docetaxel], for which the “dissolution rate after milling” value is “does not significantly increase dissolution rate even after milling”.
